# Where two headings read alike, the source gives them in different places.
# Experiments:
# [1] = system: AGS cell line; assay: In vitro antiproliferation assay, General Procedure 2 (CCK-8); format: cell-based; details: Homo sapiens, Gastric
# Source text: (§1) Cell Culture: Cell lines were obtained from the American Type Culture Collection (ATCC, Manassas, VA, USA) or Deutsche Sammlung von Mikroorganismen und Zellkulturen (DSMZ, Braunschweig, Germany) and maintained according to the culturing conditions specified by ATCC or DSMZ. Cells were thawed out and maintained in culture for at least two passages before proceeding with experimental conditions.
# (§2) Cytotoxicity assays: For adherent cell lines, the cells were dissociated with enzyme-free PBS-based cell dissociation buffer (Gibco, USA) and plated on tissue culture treated 96-well flat bottom polystyrene plates (Costar, Corning, USA) at appropriate cell densities depending on doubling time of the cells. 18 hours after plating, cells were treated with test articles at appropriate concentrations starting at 100 nM and diluted in 4-fold serial dilutions. For suspension cell lines, the cells were seeded on the same day of treatment and cells were treated as described above. Adherent cells were treated for 5 days and suspension cells were treated for 3 days. Cell proliferation was assessed using the Cell Counting Kit-8 (CCK-8, Dojindo Laboratories, Japan) and measurements were obtained using the Promega GloMax Discover plate reader (Promega, USA). Data were analyzed using GraphPad Prism software (GraphPad Software, San Diego, CA). All data points were obtained from technical triplicates and the experiments were validated using three biological replicates.
# [2] = system: BT-474 cell line; assay: as above; format: cell-based; details: Homo sapiens, Breast, read-out: IC50, BT474
# Source text: as §1, §2
# [3] = system: CMK cell line; assay: as above; format: cell-based; details: Homo sapiens, Acute megakaryocytic leukemia
# Source text: as §1, §2
# [4] = system: Daudi cell line; assay: as above; format: cell-based; details: Homo sapiens, NHL
# Source text: as §1, §2
# [5] = system: HL-60 cell line; assay: as above; format: cell-based
# Source text: as §1, §2
# [6] = system: JHUEM3 cell line; assay: as above; format: cell-based; details: Endometrial
# Source text: as §1, §2
# [7] = system: KE39 cell line; assay: as above; format: cell-based; details: Gastric
# Source text: as §1, §2
# [8] = system: LOVO cell line; assay: as above; format: cell-based; details: Homo sapiens, Colon
# Source text: as §1, §2
# [9] = system: ML-2 cell line; assay: as above; format: cell-based
# Source text: as §1, §2
# [10] = system: MOLM13 cell line; assay: as above; format: cell-based
# Source text: as §1, §2
# [11] = system: MV4-11 cell line; assay: as above; format: cell-based
# Source text: as §1, §2
# [12] = system: Molp8 cell line; assay: as above; format: cell-based; details: Homo sapiens, MOLP-8; MM
# Source text: as §1, §2
# [13] = system: NB-4 cell line; assay: as above; format: cell-based; details: Homo sapiens, Acute promyelocytic leukemia
# Source text: as §1, §2
# [14] = system: OCI-AML2 cell line; assay: as above; format: cell-based
# Source text: as §1, §2
# [15] = system: OCI-AML4 cell line; assay: as above; format: cell-based
# Source text: as §1, §2
# [16] = system: OCI-M1 cell line; assay: as above; format: cell-based; details: Acute myeloid leukemia
# Source text: as §1, §2
# [17] = system: OCI-M2 cell line; assay: as above; format: cell-based; details: Acute myelocytic leukemia
# Source text: as §1, §2
# [18] = system: PL-21 cell line; assay: as above; format: cell-based; details: Acute myeloid leukemia
# Source text: as §1, §2
# [19] = system: RPMI7951 cell line; assay: as above; format: cell-based; details: Homo sapiens, RPMI-7951; Skin
# Source text: as §1, §2
# [20] = system: SK-BR-3 cell line; assay: as above; format: cell-based; details: Homo sapiens, Breast, read-out: IC50, SKBR3
# Source text: as §1, §2
# [21] = system: SKM-1 cell line; assay: as above; format: cell-based
# Source text: as §1, §2
# [22] = system: SKOV3 cell line; assay: as above; format: cell-based; details: Homo sapiens, SK-OV-3; Ovarian
# Source text: as §1, §2
# [23] = system: SNU182 cell line; assay: as above; format: cell-based; details: Homo sapiens, SNU-182; Liver
# Source text: as §1, §2
# [24] = system: SU-DHL-8 cell line; assay: as above; format: cell-based; details: Homo sapiens, NHL
# Source text: as §1, §2
# [25] = system: THLE2 cell line; assay: as above; format: cell-based; details: THLE-2; Human liver normal
# Source text: as §1, §2
# [26] = system: THP-1 cell line; assay: as above; format: cell-based; details: Homo sapiens, AML
# Source text: as §1, §2
# [27] = system: U251MG cell line; assay: as above; format: cell-based; details: Homo sapiens, U-251; Brain
# Source text: as §1, §2
# [28] = system: EOL-1 cell line; assay: as above; format: cell-based, human
# Source text: as §1, §2
# [29] = system: BT-474 breast cancer cell line; assay: In vitro antiproliferation assay, General Procedure 1 (WST-8); format: cell-based; details: Homo sapiens, BT-474, read-out: IC50, BT-474, conjugates DAR 8, comparators DAR not given
# Description: (§3) The ability of neoDegrader conjugates to inhibit cell growth was measured using in vitro anti-proliferation assay. […] Conjugates were diluted in complete cell growth medium using 4-fold serial dilutions and 100 µL was added per well. […] Viability of remaining cells was determined by colorimetric WST-8 assay (Dojindo Molecular Technologies, Inc., Rockville, MD, US). WST-8 was added to 10% of the final volume and plates were incubated at 37° C. in a humidified 5% CO2 incubator for 2-4 hours. Plates were analyzed by measuring the absorbance at 450 nm (A450) in a multi-well plate reader. Background A450 absorbance of wells with media and WST-8 only was subtracted from all values. The percent viability was calculated by dividing each treated sample value by the average value of wells with untreated cells. The percent viability value was plotted against the test sample concentration in a semi-log plot for each treatment. IC50 values were calculated automatically.
# [30] = system: Ramos (non-Hodgkins lymphoma) cell line; assay: as above; format: cell-based; details: Ramos cells; rituximab neoDegrader conjugates versus comparators; FIG. 13
# Description: as §3
# [31] = system: SK-BR-3 breast cancer cell line; assay: as above; format: cell-based; details: SK-BR-3 cells; neoDegrader conjugates (DAR 8) versus comparators; FIGS. 7 and 8
# Description: as §3
# [32] = system: HL-60 (acute myeloid leukemia) cell line; assay: as above; format: cell-based; details: AML; conjugates DAR 8, Mylotarg DAR not given
# Description: as §3
# [33] = system: AML-193 cell line; assay: In vitro antiproliferation assay, General Procedure 2 (CCK-8); format: cell-based; details: leukemia, acute monocytic, monocyte
# Source text: as §1, §2
# [34] = system: F-36P cell line; assay: as above; format: cell-based; details: leukemia, myelodysplastic syndrome
# Source text: as §1, §2
# [35] = system: HNT-34 cell line; assay: as above; format: cell-based; details: leukemia, acute myeloid leukemia
# Source text: as §1, §2
# [36] = system: Kasumi-6 cell line; assay: as above; format: cell-based; details: leukemia, acute myeloid, myeloblast
# Source text: as §1, §2
# [37] = system: Kopn-8 cell line; assay: as above; format: cell-based; details: leukemia, B cell precursor leukemia
# Source text: as §1, §2
# [38] = system: OCI-AML-1 cell line; assay: as above; format: cell-based; details: leukemia, acute myeloid leukemia
# Source text: as §1, §2
# [39] = system: OCI-AML-5 cell line; assay: as above; format: cell-based; details: leukemia, acute myeloid leukemia
# Source text: as §1, §2
# [40] = system: OCI-AML-6 cell line; assay: as above; format: cell-based; details: leukemia, acute myeloid leukemia
# Source text: as §1, §2
# [41] = system: PLB-985 cell line; assay: as above; format: cell-based; details: leukemia, acute myeloid leukemia (derivative of HL-60)
# Source text: as §1, §2
# [42] = system: SKNO-1 cell line; assay: as above; format: cell-based; details: leukemia, acute myeloid leukemia
# Source text: as §1, §2
# [43] = system: NCI-N87 gastric cancer cell line; assay: In vitro antiproliferation assay, General Procedure 1 (WST-8); format: cell-based; details: NCI-N87 cells; neoDegrader conjugates (DAR 8) versus comparators; FIGS. 16 and 17
# Description: as §3
# [44] = Homo sapiens, HL-60, AML, read-out: IC50, HL-60
# [45] = Homo sapiens, ML-2, Acute myelomonocytic leukemia, read-out: IC50, ML-2
# [46] = Homo sapiens, MOLM-13, AML, read-out: IC50, MOLM13
# [47] = Homo sapiens, MV4-11, Biphenotypic B myelomonocytic leukemia, read-out: IC50, MV4-11
# [48] = Homo sapiens, OCI-AML2, Acute myeloid leukemia, read-out: IC50, OCI-AML2
# [49] = Acute myeloid leukemia, read-out: IC50, OCI-AML4
# [50] = Homo sapiens, SKM-1, Acute myeloid leukemia, read-out: IC50, SKM-1
# [51] = Homo sapiens, EOL1, Acute myeloid leukemia, read-out: IC50, EOL-1
Molecule,IC50 [1],IC50 [2],IC50 [3],IC50 [4],"IC50 [5, 44]",IC50 [6],IC50 [7],IC50 [8],"IC50 [9, 45]","IC50 [10, 46]","IC50 [11, 47]",IC50 [12],IC50 [13],"IC50 [14, 48]","IC50 [15, 49]",IC50 [16],IC50 [17],IC50 [18],IC50 [19],IC50 [32],also measured
"O=C1CCC(N2Cc3cc(CNC(=O)Nc4ccc(CCO)c(Cl)c4)ccc3C2=O)C(=O)N1 (stereo not shown) [Compound P3, 1-(3-chloro-4-(2-hydroxyethyl)phenyl)-3-((2-(2,6-dioxopiperidin-3-yl)-1-oxoisoindolin-5-yl)methyl)urea]",650 nM,6.37 nM,12.3 nM,9.17 nM,3.02e-09 M,37.4 nM,650 nM,750 nM,5.87e-10 M,8.5e-09 M,7.83e-10 M,6.63 nM,2.2 nM,2.91e-08 M,7e-09 M,104 nM,21.1 nM,2.09 nM,26 nM,,"IC50 [20]: 35 nM; IC50 [21, 50]: 1.89e-09 M; IC50 [22]: 99.7 nM; IC50 [23]: 8.86 nM; IC50 [24]: 18.4 nM; IC50 [25]: 59.9 nM; IC50 [26]: 65 nM; IC50 [27]: 35.8 nM; IC50 [28, 51]: 7.33e-10 M"
"CNc1ccccc1NC(=O)NCc1ccc2c(c1)CN(C1CCC(=O)NC1=O)C2=O (stereo not shown) [Compound P4, 3-[[2-(2,6-dioxopiperidin-3-yl)-1-oxo-3H-isoindol-5-yl]methyl]-1-[2-(methylamino)phenyl]urea]",650 nM,2.9 nM,1000 nM,14.3 nM,5.45e-09 M,58.6 nM,119 nM,119 nM,1.27e-09 M,9.5e-09 M,1.91e-09 M,7.42 nM,2.63 nM,> 1e-06 M,1.69e-08 M,124 nM,20.9 nM,2.28 nM,30.2 nM,,"IC50 [29]: 2.9 nM; antiproliferative activity compared, in words [30]: less active; anti-proliferative activity compared, in words [31]: significantly less active; IC50 [20]: 64.6 nM; IC50 [21, 50]: 3.77e-09 M; IC50 [22]: 138 nM; IC50 [23]: 13 nM; IC50 [24]: 19.8 nM; IC50 [25]: 6.27 nM; IC50 [26]: 85 nM; IC50 [27]: 46 nM; IC50 [28, 51]: 1.88e-09 M"
"Mylotarg: approved agent, known antibody drug conjugate MYLOTARG",,,,,,,,,,,,,,,,,,,,0.0011 nM,"IC50 [33]: > 20 nM; IC50 [34]: > 20 nM; IC50 ([5]; leukemia, acute promyelocytic, read-out: IC50 (M), HL-60): 3.26e-10 M; IC50 [35]: 3.77 nM; IC50 [36]: > 20 nM; IC50 [37]: 0.687 nM; IC50 ([9]; leukemia, acute myelomonocytic leukemia, read-out: IC50 (M), ML-2): 5.02e-11 M; IC50 ([10]; leukemia, acute,myeloid,leukemia suspension, read-out: IC50 (M), Molm-13): 2.7e-11 M; IC50 ([11]; leukemia, biphenotypic B myelomonocytic, read-out: IC50 (M), MV-4-11): 5.32e-11 M; IC50 [38]: 0.224 nM; IC50 [39]: 0.0783 nM; IC50 [40]: > 20 nM; IC50 ([14]; leukemia, acute myeloid leukemia, read-out: IC50 (M), OCI-AML-2): 3.94e-11 M; IC50 ([15]; leukemia, acute myeloid leukemia, read-out: IC50 (M), OCI-AML-4): 2.37e-10 M; IC50 [41]: 7.14 nM; IC50 ([21]; leukemia, myelodysplastic syndrome, read-out: IC50 (M), SKM-1): 2.24e-10 M; IC50 [42]: 13.4 nM; IC50 ([28]; Leukemia, Human eosinophilic leukaemia, read-out: IC50 (M), EoL-1): 6.87e-11 M"
Pertuzumab [reference compound],,,,,,,,,,,,,,,,,,,,,"anti-proliferative activity compared, in words [43]: significantly less active; anti-proliferative activity compared, in words [31]: significantly less active"
"Lintuzumab IgG1-Compound (Ia) (conjugate, chains of the INN, looked up, IgG1 conjugated to Compound (Ia)) VH: QVQLVQSGAEVKKPGSSVKVSCKASGYTFTDYNMHWVRQAPGQGLEWIGYIYPYNGGTGYNQKFKSKATITADESTNTAYMELSSLRSEDTAVYYCARGRPAMDYWGQGTLVTVSS VL: DIQMTQSPSSLSASVGDRVTITCRASESVDNYGISFMNWFQQKPGKAPKLLIYAASNQGSGVPSRFSGSGSGTDFTLTISSLQPDDFATYYCQQSKEVPWTFGQGTKVEIK",,,,,,,,,,,,,,,,,,,,0.012 nM,
"Lintuzumab IgG1-Compound (Id) (conjugate, chains of the INN, looked up, IgG1 conjugated to Compound (Id)) VH: QVQLVQSGAEVKKPGSSVKVSCKASGYTFTDYNMHWVRQAPGQGLEWIGYIYPYNGGTGYNQKFKSKATITADESTNTAYMELSSLRSEDTAVYYCARGRPAMDYWGQGTLVTVSS VL: DIQMTQSPSSLSASVGDRVTITCRASESVDNYGISFMNWFQQKPGKAPKLLIYAASNQGSGVPSRFSGSGSGTDFTLTISSLQPDDFATYYCQQSKEVPWTFGQGTKVEIK",,,,,,,,,,,,,,,,,,,,> 0.05 nM,
